# Results taken from patent publication US20120258975A1, “Potent Small Molecule Inhibitors of Autophagy, and Methods of Use Thereof” (Shanghai Institute of Organic Chemistry, priority 2009, published 2012).
# What was measured:
# MDA-MB-231 cells = assay: MDA-MB-231 cell survival under serum free condition; format: cell-based
# Method: Since autophagy is activated under metabolic stress conditions to support cell survival, compounds were tested to determine if they promote cell death under starvation condition.
# [1] = test system: USP10/Beclin1 and USP13/Beclin1 interaction; assay: USP10 or USP13 / GFP-Beclin1 co-immunoprecipitation in 293T cells; format: cell-based; conditions: 10 μM, 4 h, with MG132
# Method: To further confirm that USP10 and USP13 are the deubiquitinating proteases of Vps34 complexes, the interaction of Flag-USP10/GFP-Beclin1 and Myc-USP13/GFP-Beclin1 in 293T cells was assayed with immunoprecipitation. […] Furthermore, this may provide a mechanism to explain why beclin1 is frequently lost in many kinds of cancers as the loss of beclin1 may lead to a reduction of p53 by inhibiting its deubiquitining proteases.
# [2] = test system: autophagy (LC3) in pancreas; assay: Cerulein induced pancreatitis model in rats; format: in vivo; conditions: 40 mg/kg intraperitoneally hourly for 4 times with cerulein
# Method: FIG. 13 depicts results showing the effect of MBCQ and derivatives in vivo. (A) Mice were injected with rapamycin (10 mg/kg) alone as a positive control, or with C43 or MBCQ (40 mg/kg) intraperitoneally every hour for 4 h and then sacrificed at 5 th h. The autophagy levels in liver were analyzed by western blotting using anti-LC3 antibody. (B) C43 reduces the levels of autophagy induced by cerulein. Rats were injected intraperitoneally with cerulein (50 μg/kg) alone or with C43 (40 mg/kg) hourly for 4 times. The rats were sacrificed at one h after the last injection and the pancreas were isolated for western blotting analysis using anti-LC3 and anti-tubulin (as a control).
# Since autophagy has been proposed to contribute to the tissue damage in pancreatitis, MBCQ derivatives were tested to see if they could reduce tissue damage induced by cerulein injection, a well-established animal model of pancreatitis (Hashimoto, D., Ohmuraya, M., Hirota, M., Yamamoto, A., Suyama, K., Ida, S., Okumura, Y., Takahashi, E., Kido, H., Araki, K., et al. (2008). Involvement of autophagy in trypsinogen activation within the pancreatic acinar cells. J Cell Biol 181, 1065-1072; and Ohmuraya, M., and Yamamura, K. (2008). Autophagy and acute pancreatitis: a novel autophagy theory for trypsinogen activation. Autophagy 4, 1060-1062). […]
smiles,measurement,setting,value
"Fc1ccc(CNc2ncnc3ccc(F)cc23)cc1 [C43, 6-fluoro-N-(4-fluorobenzyl)quinazolin-4-amine]",cell survival,MDA-MB-231 cells,reduced the survival
same,interaction of Flag-USP10 with GFP-Beclin1,[1],impair the interaction
same,levels of autophagy induced by cerulein injection (pancreas),[2],significantly reduced the levels of autophagy
